Earlier results in patent publication US20240033223A1 (SICHUAN CREDIT PHARMACEUTICAL CO., LTD, priority 2020, published 2024).

Conditions: aqueous preparation (U.S. Pat. No. 4,925,860)

In the case of `O=C1NC(=O)C(c2ccccc2)(c2ccccc2)N1` [Impurity C, Phenytoin], the Solubility in water is listed as “water-insoluble”.
